Experiment [1] concerns the target T1, Cathepsin B (Homo sapiens, UniProt P07858). Put plainly: Inhibition of human cathepsin B using Z-Phe-Arg-AMC fluorogenic peptide as substrate preincubated for 2 mins followed by substrate addition and measured for 5 mins by fluorescence assay.
Experiment [2] addresses T2, Procathepsin L (Homo sapiens, UniProt P07711). Put plainly: Inhibition of human cathepsin L.
Target sequence in this assay (P07711 whole entry): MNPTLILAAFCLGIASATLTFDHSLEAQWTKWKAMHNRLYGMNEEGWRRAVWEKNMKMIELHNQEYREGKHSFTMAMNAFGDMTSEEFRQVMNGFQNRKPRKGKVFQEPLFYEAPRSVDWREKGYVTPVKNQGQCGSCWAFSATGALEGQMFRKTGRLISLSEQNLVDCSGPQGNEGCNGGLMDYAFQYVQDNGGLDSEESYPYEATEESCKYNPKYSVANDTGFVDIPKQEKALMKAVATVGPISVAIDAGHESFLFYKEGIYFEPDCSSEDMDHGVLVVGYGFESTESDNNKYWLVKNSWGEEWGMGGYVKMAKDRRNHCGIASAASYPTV
Another experiment addresses T3, Cathepsin K (Homo sapiens, UniProt P43235).
T3 sequence (P43235 whole entry): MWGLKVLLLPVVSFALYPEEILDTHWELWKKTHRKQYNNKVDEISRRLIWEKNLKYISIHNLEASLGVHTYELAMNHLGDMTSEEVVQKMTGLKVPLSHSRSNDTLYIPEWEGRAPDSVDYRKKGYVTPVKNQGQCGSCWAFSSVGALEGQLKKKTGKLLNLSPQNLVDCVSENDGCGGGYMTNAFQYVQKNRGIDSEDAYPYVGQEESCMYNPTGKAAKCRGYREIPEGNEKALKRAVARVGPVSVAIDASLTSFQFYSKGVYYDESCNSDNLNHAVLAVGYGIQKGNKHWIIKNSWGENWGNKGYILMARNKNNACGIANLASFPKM
Put plainly: Inhibition of recombinant human cathepsin K using Z-Leu-Arg-AMC as substrate measured after 20 mins.

Experiment [3] addresses T4, Cathepsin S (Homo sapiens, UniProt P25774). Put plainly: Inhibition of human cathepsin S.
Target sequence in this assay (P25774 whole entry): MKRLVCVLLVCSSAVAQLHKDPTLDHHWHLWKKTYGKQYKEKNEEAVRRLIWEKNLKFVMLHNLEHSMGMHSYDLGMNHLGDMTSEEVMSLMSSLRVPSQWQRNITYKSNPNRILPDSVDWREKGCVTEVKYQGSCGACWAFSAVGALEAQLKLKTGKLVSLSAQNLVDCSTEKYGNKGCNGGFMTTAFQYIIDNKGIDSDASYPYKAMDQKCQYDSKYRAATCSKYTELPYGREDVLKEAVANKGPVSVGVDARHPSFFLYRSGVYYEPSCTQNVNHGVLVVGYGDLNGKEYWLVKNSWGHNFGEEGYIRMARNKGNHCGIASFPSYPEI
For experiment [4], the target named is T5, Cathepsin K (Homo sapiens) (UniProt P43235).
T5 sequence (whole entry): T3 sequence (P43235 whole entry)
Put plainly: Inhibition of recombinant human cathepsin K at 10 uM using Z-Leu-Arg-AMC as substrate measured after 20 mins relative to control.

Experiment [5] concerns the target T2, Procathepsin L. Put plainly: Inhibition of human cathepsin L at 10 uM relative to control.
Target sequence in this assay (P07711 114-333 limits assumed): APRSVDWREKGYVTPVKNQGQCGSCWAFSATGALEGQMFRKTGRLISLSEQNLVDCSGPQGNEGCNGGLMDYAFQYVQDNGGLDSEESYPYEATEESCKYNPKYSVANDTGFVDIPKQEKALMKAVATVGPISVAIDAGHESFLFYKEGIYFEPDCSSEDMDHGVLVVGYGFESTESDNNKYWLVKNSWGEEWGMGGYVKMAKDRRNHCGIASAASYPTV
In experiment [6] the target is T1, Cathepsin B. Briefly: Inhibition of human cathepsin B at pH 6 using Z-Phe-Arg-AMC fluorogenic peptide as substrate preincubated for 2 mins followed by substrate addition and measured for 5 mins by fluorescence assay.
In experiment [7] the target is T1, Cathepsin B. Briefly: Inhibition of human cathepsin B at pH 4.5 using Z-Phe-Arg-AMC fluorogenic peptide as substrate preincubated for 2 mins followed by substrate addition and measured for 5 mins by fluorescence assay.
In experiment [8] the target is T4, Cathepsin S. Put plainly: Inhibition of human cathepsin S at 10 uM relative to control.
Target sequence in this assay (P25774 115-331 limits assumed): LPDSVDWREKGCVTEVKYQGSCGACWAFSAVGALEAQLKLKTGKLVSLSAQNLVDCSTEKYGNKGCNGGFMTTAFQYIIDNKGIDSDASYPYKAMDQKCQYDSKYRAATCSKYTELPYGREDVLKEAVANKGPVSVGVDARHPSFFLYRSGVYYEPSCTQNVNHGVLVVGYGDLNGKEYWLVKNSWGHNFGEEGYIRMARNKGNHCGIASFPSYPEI
Experiment [9] is filed under the species Homo sapiens. Put plainly: Selectivity index, ratio of pKi for human cathepsin S to pKi for human cathepsin B using Z-Phe-Arg-AMC fluorogenic peptide as substrate preincubated for 2 mins followed by substrate addition and measured for 5 mins by fluorescence assay. Conditions: time 7.0 min.
In experiment [10] the target is Cathepsin (S and K) (Homo sapiens) (UniProt P25774+P43235). Put plainly: Selectivity index, ratio of pKi for human cathepsin S to pKi for recombinant human cathepsin K using Z-Leu-Arg-AMC as substrate measured after 20 mins. Format: protein assay.
Cathepsin (S and K) (Homo sapiens), sequence (P25774 whole entry, looked up, one chain of several): as the sequence (P25774 whole entry) above
Experiment [11] is filed under the species Homo sapiens. Put plainly: Selectivity index, ratio of pKi for human cathepsin S to pKi for human cathepsin L.
The target of experiment [12] is T1, Cathepsin B. Put plainly: Inhibition of human cathepsin B at 10 uM using Z-Phe-Arg-AMC fluorogenic peptide as substrate preincubated for 2 mins followed by substrate addition and measured for 5 mins by fluorescence assay relative to control. Conditions: time 7.0 min.
Experiment [13] is filed under the species Homo sapiens. Briefly: Selectivity index, ratio of pKi for human cathepsin B using Z-Phe-Arg-AMC fluorogenic peptide as substrate preincubated for 2 mins followed by substrate addition and measured for 5 mins by fluorescence assay to pKi for human cathepsin L. Conditions: time 7.0 min.

What is called Ki is a dissociation constant, usually derived from enzyme kinetics or from competition with a known ligand. For orientation: inhibition means how much of the control response was suppressed. The IC50 is the point on the concentration scale where inhibition reaches its midpoint. Low values mean greater potency, high ones weaker potency.

As for `C[C@@H](OCc1ccccc1)[C@@H](C#N)NC(=O)[C@H](Cc1cccc(Cl)c1)NC(=O)c1ccc(Br)cc1`, the inhibition constant Ki is 12.6 nM at Cathepsin B [1], 7.94 nM on Procathepsin L [2], 5010 nM at Cathepsin K and 126 nM on Cathepsin S [3].
In the case of `C[C@@H](OCc1ccccc1)[C@@H](C#N)NC(=O)[C@H](Cc1cccc(Cl)c1)NC(=O)c1cccc(-c2cncnc2)c1`, the Ki on Cathepsin B [1] was 63.1 nM; at Procathepsin L [2] it was 20 nM; at Cathepsin K, above 10000 nM; at Cathepsin S [3] it was 15.8 nM. Moreover, the inhibition in [4] stood at 82%.
In the case of `C[C@@H](OCc1ccccc1)[C@@H](C#N)NC(=O)[C@H](Cc1cccc(Cl)c1)NS(=O)(=O)c1cccc(-c2ccccc2)c1`, the inhibition constant Ki at Cathepsin B [1] was 25.1 nM; at Procathepsin L [2], 200 nM; on Cathepsin K, above 10000 nM; at Cathepsin S [3], 631 nM.
For `C[C@@H](OCc1ccccc1)[C@@H](C#N)NC(=O)[C@H](Cc1cccc(Cl)c1)NC(=O)c1cccc(Br)c1` the same measures were 63.1 nM, 0.631 nM, 3980 nM and 15.8 nM.
With `C[C@@H](OCc1ccccc1)[C@@H](C#N)NC(=O)[C@H](Cc1cccc(Cl)c1)NC(=O)c1ccc(-c2ccccc2)cc1`, the Ki on Cathepsin B [1] was 31.6 nM; on Procathepsin L [2] it was above 10000 nM; at Cathepsin K it was 1580 nM; at Cathepsin S [3], 79.4 nM. Besides, the inhibition on Procathepsin L [5] was determined as 61%. Moreover, the IC50 at Cathepsin B [6] was 57.8 nM; against Cathepsin B [7], 42.3 nM.
For `C[C@@H](OCc1ccccc1)[C@@H](C#N)NC(=O)[C@H](Cc1ccc(Br)cc1)NC(=O)c1ccc(-c2ccccc2)cc1`, the inhibitory constant (Ki) at Cathepsin B [1] is 158 nM; on Procathepsin L [2] it was above 10000 nM; on Cathepsin K, above 10000 nM; at Cathepsin S [3], above 10000 nM. In addition, the inhibition at Cathepsin S [8] was 86%; against Procathepsin L [5], above 90%; in experiment [4] it was 51%.
Regarding `C[C@@H](OCc1ccccc1)[C@@H](C#N)NC(=O)[C@H](Cc1cccc(Br)c1)NC(=O)c1ccc(-c2cncnc2)cc1`, the Ki at Cathepsin B [1] was 12.6 nM; at Procathepsin L [2], 20 nM; at Cathepsin K, 5010 nM; at Cathepsin S [3] it was 31.6 nM.
With `C[C@@H](OCc1ccccc1)[C@@H](C#N)NC(=O)[C@H](Cc1cccc(Br)c1)NC(=O)c1ccc(-c2ccccc2)cc1`, the inhibition constant (Ki) at Cathepsin B [1] was 50.1 nM; at Procathepsin L [2] it was above 10000 nM; on Cathepsin K, above 10000 nM; at Cathepsin S [3], 501 nM. Moreover, the values for the inhibition (at Procathepsin L [5]; in experiment [4]) were 55% and above 90%, respectively. Further, the half-maximal inhibitory concentration (IC50) on Cathepsin B [6] is 92.6 nM; against Cathepsin B [7], 39.4 nM.
In the case of `C[C@@H](OCc1ccccc1)[C@@H](C#N)NC(=O)[C@H](Cc1cccc(Cl)c1)NC(=O)c1cccc(-c2ccccc2)c1`, the inhibition constant (Ki) on Cathepsin B [1] was 126 nM; at Procathepsin L [2], 50.1 nM; on Cathepsin K, above 10000 nM; at Cathepsin S [3] it was 50.1 nM.
Turning to `C[C@@H](OCc1ccccc1)[C@@H](C#N)NC(=O)[C@H](Cc1cccc(Br)c1)NC(=O)Cc1ccc(-c2ccccc2)cc1`, the Ratio pKi (in the experiment filed under Homo sapiens [9]; in [10]; in the experiment filed under Homo sapiens [11]) was above 50 each time. Also, the Ki on Cathepsin B [1] is above 10000 nM; on Procathepsin L [2], above 10000 nM; at Cathepsin K, above 10000 nM; at Cathepsin S [3] it was 501 nM. Also, the inhibition against Procathepsin L [5] was 59%; in experiment [4], above 90%; at Cathepsin B [12] it was above 90%.
In the case of `C[C@@H](OCc1ccccc1)[C@@H](C#N)NC(=O)[C@H](Cc1cccc(Br)c1)NC(=O)c1cc(C(C)(C)C)nn1C`, the Ki at Cathepsin B [1] was 158 nM; at Procathepsin L [2], 0.501 nM; on Cathepsin K, 2510 nM; at Cathepsin S [3], 158 nM.
For the molecule `C[C@@H](OCc1ccccc1)[C@@H](C#N)NC(=O)[C@H](Cc1cccc(Br)c1)NC(=O)c1ccc(-c2cccnc2)cc1`, the Ki at Cathepsin B [1] is 12.6 nM; at Procathepsin L [2], 20 nM; at Cathepsin K, above 10000 nM; on Cathepsin S [3] it was 39.8 nM. The inhibition in [4] stood at 84%.
In the case of `C[C@@H](OCc1ccccc1)[C@@H](C#N)NC(=O)[C@H](Cc1cccc(Cl)c1)NC(=O)c1ccc(-c2cncnc2)cc1`, the Ki on Cathepsin B [1] was 12.6 nM; on Procathepsin L [2] it was 15.8 nM; on Cathepsin K it was 6310 nM; on Cathepsin S [3] it was 63.1 nM.
For `C[C@@H](OCc1ccccc1)[C@@H](C#N)NC(=O)[C@H](Cc1cccc(Br)c1)NC(=O)c1cccc(-c2cccnc2)c1` the same measures were 31.6 nM, 20 nM, above 10000 nM and 20 nM.
Regarding `C[C@@H](OCc1ccccc1)[C@@H](C#N)NC(=O)[C@H](Cc1cccc(Cl)c1)NS(=O)(=O)c1cccc(Br)c1`, the Ki at Cathepsin B [1] is 39.8 nM; on Procathepsin L [2], 0.251 nM; on Cathepsin K it was 631 nM; at Cathepsin S [3] it was 79.4 nM.
For `C[C@@H](OCc1ccccc1)[C@@H](C#N)NC(=O)[C@H](Cc1cccc(Cl)c1)NS(=O)(=O)c1ccc(-c2ccccc2)cc1` the same measures were 200 nM, 158 nM, 10000 nM and 501 nM.
As for `C[C@@H](OCc1ccccc1)[C@@H](C#N)NC(=O)[C@H](Cc1cccc(Cl)c1)NC(=O)c1cccc(-c2cccnc2)c1`, the inhibitory constant (Ki) at Cathepsin B [1] was 5.01 nM; at Procathepsin L [2] it was 1 nM; on Cathepsin K, above 10000 nM; at Cathepsin S [3], 12.6 nM. Further, the IC50 against Cathepsin B [6] was determined as 9.01 nM; against Cathepsin B [7], 33.1 nM.
Consider `C[C@@H](OCc1ccccc1)[C@@H](C#N)NC(=O)[C@H](Cc1c[nH]c2ccccc12)NC(=O)c1ccc(-c2ccccc2)cc1`, for which the Ratio pKi in the experiment filed under Homo sapiens [13] was determined as 12. The inhibition constant Ki at Cathepsin B [1] is 50.1 nM; on Procathepsin L [2], 794 nM; at Cathepsin K it was above 10000 nM; at Cathepsin S [3] it was 158 nM. For the same molecule, the inhibition in [4] was determined as 70%.

The values are drawn from ChEMBL document CHEMBL4673336, “Design, synthesis and stepwise optimization of nitrile-based inhibitors of cathepsins B and L” (Bioorg Med Chem, 2021).
